Values of other authors, collected in publication PMC12371494, “Discovery of YTHDF2 Ligands by Fragment-Based Design” (ACS Bio & Med Chem Au, 2025).

Target: T1, GST-YTHDF2 (Homo sapiens, UniProt Q9Y5A9)
T1 construct: made in house
T1 sequence (Q9Y5A9 1-579): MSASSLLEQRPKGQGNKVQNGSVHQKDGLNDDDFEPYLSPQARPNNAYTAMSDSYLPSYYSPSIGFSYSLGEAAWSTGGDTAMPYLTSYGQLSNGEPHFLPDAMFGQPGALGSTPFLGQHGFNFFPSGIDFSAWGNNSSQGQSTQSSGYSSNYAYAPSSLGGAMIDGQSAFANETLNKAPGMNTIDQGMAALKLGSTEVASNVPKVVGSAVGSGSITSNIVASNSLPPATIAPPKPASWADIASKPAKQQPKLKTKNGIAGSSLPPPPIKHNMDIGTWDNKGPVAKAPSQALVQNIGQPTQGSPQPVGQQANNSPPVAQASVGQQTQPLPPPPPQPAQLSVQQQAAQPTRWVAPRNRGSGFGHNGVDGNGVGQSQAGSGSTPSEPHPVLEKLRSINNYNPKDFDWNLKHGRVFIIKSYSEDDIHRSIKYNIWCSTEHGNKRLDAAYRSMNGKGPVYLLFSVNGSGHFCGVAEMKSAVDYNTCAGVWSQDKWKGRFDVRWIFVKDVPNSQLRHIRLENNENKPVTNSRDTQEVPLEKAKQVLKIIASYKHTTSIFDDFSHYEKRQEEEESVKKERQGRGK
Settings: HTRF, 1 mM compound; cited from earlier work

## CNc1ncnc2[nH]cnc12 [m^6-Adenine]
  Residual signal at 1 mM concentration: 75 (Ref. ^13) %
